For six molecules, IC50 results are on record in ChEMBL document CHEMBL4229446, “Development of Novel Monoamine Oxidase-B (MAO-B) Inhibitors with Reduced Blood-Brain Barrier Permeability for the Potential Management of Noncentral Nervous System (CNS) Diseases” (J Med Chem, 2018).

Each structure is given as a SMILES string.

The first experiment has as its target T1, Amine oxidase [flavin-containing] A (Homo sapiens, UniProt P21397).
T1 sequence (P21397 whole entry): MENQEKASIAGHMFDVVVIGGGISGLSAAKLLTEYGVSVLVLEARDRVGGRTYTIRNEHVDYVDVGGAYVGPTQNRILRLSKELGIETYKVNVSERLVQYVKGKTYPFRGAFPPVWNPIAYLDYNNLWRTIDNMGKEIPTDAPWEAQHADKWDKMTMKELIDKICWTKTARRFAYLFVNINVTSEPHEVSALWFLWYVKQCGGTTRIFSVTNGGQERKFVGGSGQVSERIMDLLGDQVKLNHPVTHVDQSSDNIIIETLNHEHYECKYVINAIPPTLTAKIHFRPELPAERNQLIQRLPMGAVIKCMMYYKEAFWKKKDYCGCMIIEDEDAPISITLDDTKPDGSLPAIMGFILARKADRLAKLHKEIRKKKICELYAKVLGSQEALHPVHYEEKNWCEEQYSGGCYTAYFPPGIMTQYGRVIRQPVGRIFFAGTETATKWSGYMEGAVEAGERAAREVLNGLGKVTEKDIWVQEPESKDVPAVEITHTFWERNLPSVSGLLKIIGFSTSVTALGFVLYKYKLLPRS
The experiment can be described thus: Inhibition of human recombinant MAO-A expressed in baculovirus infected BTI-TN-5B1-4 insect cells using tyramine as substrate preincubated for 1 hr followed by substrate addition and measured after 30 mins by resazurin dye-based fluorescence assay.
For `C[C@H](Cc1ccc(OCc2ccc(C#N)cc2)cc1)N(C)CC(=O)O`, the IC50 is > 50 µM.

Regarding `COC(=O)c1ccc(COc2ccc(C[C@@H](C)N(C)CC(=O)O)cc2)cc1`, the IC50 is > 50 µM.

For `C[C@H](Cc1ccc(OCc2ccccc2)cc1)N(C)CC(=O)O`, the IC50 is > 50 µM.

As for `C[C@H](Cc1ccc(OCc2cccc(F)c2)cc1)N(C)CC(=O)O`, the concentration for half-maximal inhibition (IC50) was > 50 µM.

On to `CN(CC(=O)O)[C@H](COCc1ccccc1)Cc1ccc(OCc2ccccc2)cc1`, for which the IC50 was > 50 µM.

As for `C[C@H](Cc1ccc(OCc2cc(F)cc(F)c2)cc1)N(C)CC(=O)O`, the IC50 was > 50 µM.

The target in another experiment is T2, Amine oxidase [flavin-containing] B (Homo sapiens, UniProt P27338).
T2 sequence (P27338 whole entry): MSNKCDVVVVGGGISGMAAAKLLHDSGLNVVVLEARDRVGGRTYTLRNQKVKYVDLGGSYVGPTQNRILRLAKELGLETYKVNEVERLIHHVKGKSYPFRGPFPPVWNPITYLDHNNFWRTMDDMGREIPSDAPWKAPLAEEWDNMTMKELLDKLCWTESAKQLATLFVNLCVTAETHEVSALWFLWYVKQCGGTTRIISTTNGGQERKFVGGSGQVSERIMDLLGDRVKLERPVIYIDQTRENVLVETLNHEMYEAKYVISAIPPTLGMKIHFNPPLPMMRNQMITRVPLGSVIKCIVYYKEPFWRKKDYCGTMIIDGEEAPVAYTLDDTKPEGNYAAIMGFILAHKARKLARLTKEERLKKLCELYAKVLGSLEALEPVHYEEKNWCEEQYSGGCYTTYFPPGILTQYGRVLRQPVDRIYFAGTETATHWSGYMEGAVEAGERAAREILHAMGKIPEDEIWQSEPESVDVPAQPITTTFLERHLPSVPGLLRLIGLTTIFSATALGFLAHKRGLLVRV
Put plainly: Inhibition of human recombinant MAO-B expressed in baculovirus infected BTI-TN-5B1-4 insect cells using benzylamine as substrate preincubated for 1 hr followed by substrate addition and measured after 30 mins by resazurin dye-based fluorescence assay. Format: cell-based.
Turning to `C[C@H](Cc1ccc(OCc2ccc(C#N)cc2)cc1)N(C)CC(=O)O`, the IC50 is 3.75 µM.

Take `C[C@H](Cc1ccc(OCc2ccccc2)cc1)N(C)CC(=O)O`: the IC50 was determined as 0.894 µM.

Turning to `C[C@H](Cc1ccc(OCc2cccc(F)c2)cc1)N(C)CC(=O)O`, the IC50 was 0.869 µM.

On to `CN(CC(=O)O)[C@H](COCc1ccccc1)Cc1ccc(OCc2ccccc2)cc1`, for which the IC50 was determined as 8 µM.

Consider `C[C@H](Cc1ccc(OCc2cc(F)cc(F)c2)cc1)N(C)CC(=O)O`, for which the IC50 amounted to 0.911 µM.
